Measurements published in patent US20240287138A1, “CYCLIC PEPTIDES FOR INHIBITING TNF RECEPTOR 1 ACTIVITY” (Merck Sharp & Dohme LLC, priority 2023, published 2024).
Numbered stars: 1 amine (or outer) side, 2 acyl side, 3 side chain; on linkers, the order of the positions; unused ones are H or OH. Bridge positions count the residues as written; N and C are the ends. Square brackets hold non-standard residues; d marks the D form. Peptide text beside a SMILES is read from it. Trp(βS-Me,7-OMe) = COc1cccc2c([C@H](C)[C@H](N)C(=O)O)c[nH]c12; Trp(1-CH2COOH) = N[C@@H](Cc1cn(CC(=O)O)c2ccccc12)C(=O)O; Phe(4-SO3H) = N[C@@H](Cc1ccc(S(=O)(=O)O)cc1)C(=O)O; Trp(7-CN) = N#Cc1cccc2c(C[C@H](N)C(=O)O)c[nH]c12; Trp(7-Cl) = N[C@@H](Cc1c[nH]c2c(Cl)cccc12)C(=O)O; Phe(4-CONH2) = NC(=O)c1ccc(C[C@H](N)C(=O)O)cc1; Phe(4-COOH) = N[C@@H](Cc1ccc(C(=O)O)cc1)C(=O)O; Trp(7-aza) = N[C@@H](Cc1c[nH]c2ncccc12)C(=O)O; dPro(4S-NH2) = N[C@@H]1CN[C@@H](C(=O)O)C1; Pip(5R-OH) = O=C(O)[C@@H]1CC[C@@H](O)CN1; X1 = O=C([C@@H]1CC[C@H](N[*:1])C1)[*:2]; dPro(3S-OH) = O=C(O)[C@@H]1NCC[C@@H]1O; X68 = O=C([C@@H]1CSCCN1[*:1])[*:2]; Pip(4-aza) = O=C(O)[C@@H]1CNCCN1; 4Pal = N[C@@H](Cc1ccncc1)C(=O)O; NMeE = CN[C@@H](CCC(=O)O)C(=O)O; X7 = CC[C@@H](C(=O)[*:1])[*:2]; X61 = O=C(CN(CCCO)[*:1])[*:2]; Ahp(2) = CCCCC[C@H](N)C(=O)O; Pip = O=C(O)[C@@H]1CCCCN1; αMeS = C[C@](N)(CO)C(=O)O; Nle = CCCC[C@H](N)C(=O)O; Sar = CNCC(=O)O

Target: T1, human soluble TNFR1 (sTNFR1) (Homo sapiens, UniProt P19438)
T1 construct: made in house; host or cells: Sf21 (baculovirus)
T1 sequence (P19438 with tags, fused parts or gaps): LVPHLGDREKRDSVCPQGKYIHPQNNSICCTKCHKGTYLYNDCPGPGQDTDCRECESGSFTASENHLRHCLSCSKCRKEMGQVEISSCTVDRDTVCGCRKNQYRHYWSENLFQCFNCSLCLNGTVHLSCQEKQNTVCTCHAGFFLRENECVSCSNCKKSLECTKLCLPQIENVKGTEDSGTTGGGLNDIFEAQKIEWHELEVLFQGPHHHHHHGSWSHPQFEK
Assay: Human sTNFR1-peptide displacement assay (LanthaScreen Eu TR-FRET binding assay)
Experimental: A. Procedure for Human sTNFR1-Peptide Displacement Assay
The affinity was determined using LanthaScreen Eu-based time-resolved fluorescence resonance energy transfer (TR-FRET)-based binding assay.
A TR-FRET assay measuring the displacement of biotinylated peptide SEQ ID NO. 1 from human soluble TNFR1 (sTNFR1) in a pre-formed complex by a macrocyclic peptide yields the affinity (Kd^app) of the cyclic peptide for sTNFR1. The reagents for the assay include: the C′-terminally 6His-tagged sTNFR1 (residues 1-211) protein purified from a Sf21 baculovirus expression system, the biotin-tagged B0372 peptide described in section “Preparation of Final Compounds”, part E, the LanthaScreen™ anti-His Tag Europium donor (Life Technologies Corporation (San Diego, CA), cat. #PV5597), and a streptavidin-conjugate Alexa Fluor™ 647 acceptor (Invitrogen (Waltham, MA), cat. #S32357). Time-resolved TR-FRET is achieved when sTNFR1 is bound to biotinylated peptide SEQ ID NO. 1 through coupling of the donor and acceptor FRET pair.
100 nM biotinylated peptide SEQ ID NO. […] 100 nM biotinylated peptide SEQ ID NO. 1 was chosen as it reflects the ˜Kd for this complex. After 30 min at ambient temperature, each test peptide (2 mM stock in DMSO) is titrated in a 20 point, ˜3-fold discrete dose-response using an acoustic-dispense liquid handler. Specifically, 80 nL of peptide/DMSO is transferred into a ProxiPlate-384 Plus 384-well assay plate (PerkinElmer, cat. #6008289). To this plate, 8 μL of the previously formed sTNFR 1-biotinylated peptide SEQ ID NO. 1 complex is added and allowed to reach binding equilibrium with the test peptide at ambient temperature for 90 min.
The TR-FRET signal is measured with the following EnVision® settings: excitation laser at 337 nm; emission1=615 nm, emission2=665 nm, LANCE/DELFIA dichroic mirror, delay time=[…]. The signal of each well is determined as the ratio of the emission at 665 nm to that at 615 nm. Percent displacement is determined by normalization to control wells containing DMSO (0%) or a saturating concentration of a displaceable peptide (100%). The %-effect as a function of peptide concentration is fit to a five-parameter logistic fit based on the Morrison equation to account for tight binding kinetics.

CCCCC[C@@H]1NC(=O)[C@@H]2CC[C@@H](C2)NC(=O)[C@H]([C@@H](C)c2c[nH]c3c(OC)cccc23)NC(=O)CN(C)C(=O)[C@H](Cc2cn(CC(=O)O)c3ccccc23)NC(=O)[C@H](Cc2ccc(C(N)=O)cc2)NC(=O)[C@](C)(CO)NC(=O)[C@H](Cc2c[nH]c3c(C#N)cccc23)NC(=O)[C@H](Cc2ccc(C(=O)O)cc2)NC(=O)[C@H](CC(N)=O)NC(=O)[C@H]2C[C@H](N)CN2C(=O)[C@H](Cc2c[nH]c3ccccc23)NC(=O)[C@@H]2CC[C@@H](O)CN2C(=O)[C@H](Cc2ccncc2)NC1=O [SEQ ID NO. 150] (cyclo([4Pal][Pip(5R-OH)]W[dPro(4S-NH2)]N[Phe(4-COOH)][Trp(7-CN)][αMeS][Phe(4-CONH2)][Trp(1-CH2COOH)][Sar][Trp(βS-Me,7-OMe)][X1][Ahp(2)]))
Kd: 0.23 nM

CCCC[C@@H]1NC(=O)[C@@H]2CC[C@@H](C2)NC(=O)[C@H]([C@@H](C)c2c[nH]c3c(OC)cccc23)NC(=O)CN(C)C(=O)[C@H](Cc2ccc(O)cc2)NC(=O)[C@H](Cc2ccc(C(=O)O)cc2)NC(=O)[C@](C)(CO)NC(=O)[C@H](Cc2c[nH]c3c(Cl)cccc23)NC(=O)[C@H](Cc2ccc(S(=O)(=O)O)cc2)NC(=O)[C@H](CC(N)=O)NC(=O)[C@H](CCC(=O)O)N(C)C(=O)[C@H](Cc2c[nH]c3ccccc23)NC(=O)[C@@H]2CNCCN2C(=O)[C@H](Cc2ccncc2)NC1=O [SEQ ID NO. 173] (cyclo([4Pal][Pip(4-aza)]W[NMeE]N[Phe(4-SO3H)][Trp(7-Cl)][αMeS][Phe(4-COOH)]Y[Sar][Trp(βS-Me,7-OMe)][X1][Nle]))
Kd: 0.26 nM

CCCC[C@@H]1NC(=O)CSC[C@@H](C(N)=O)NC(=O)[C@H]([C@@H](C)c2c[nH]c3c(OC)cccc23)NC(=O)CN(C)C(=O)[C@H](Cc2ccc(O)cc2)NC(=O)[C@H](Cc2ccc(C(=O)O)cc2)NC(=O)[C@](C)(CO)NC(=O)[C@H](Cc2c[nH]c3c(Cl)cccc23)NC(=O)[C@H](Cc2ccncc2)NC(=O)[C@H](CC(N)=O)NC(=O)CN(CCCO)C(=O)[C@H](Cc2c[nH]c3ncccc23)NC(=O)[C@@H]2CCCCN2C(=O)[C@H](Cc2ccncc2)NC1=O [SEQ ID NO. 170] ({CH2CO}-[Nle][4Pal][Pip][Trp(7-aza)][X61]N[4Pal][Trp(7-Cl)][αMeS][Phe(4-COOH)]Y[Sar][Trp(βS-Me,7-OMe)]C-NH2; thioether N-14)
IC50: 0.6 nM | Kd: 0.56 nM

CCCC[C@@H]1NC(=O)[C@@H]2CC[C@@H](C2)NC(=O)[C@H]([C@@H](C)c2c[nH]c3c(OC)cccc23)NC(=O)CN(C)C(=O)[C@H](Cc2ccc(O)cc2)NC(=O)[C@H](Cc2ccc(C(=O)O)cc2)NC(=O)[C@](C)(CO)NC(=O)[C@H](Cc2c[nH]c3c(Cl)cccc23)NC(=O)[C@H](Cc2ccncc2)NC(=O)[C@H](CC(N)=O)NC(=O)[C@H]2[C@@H](O)CCN2C(=O)[C@H](Cc2c[nH]c3ccccc23)NC(=O)[C@@H]2CNCCN2C(=O)[C@H](Cc2ccncc2)NC1=O [SEQ ID NO. 192] (cyclo([4Pal][Trp(7-Cl)][αMeS][Phe(4-COOH)]Y[Sar][Trp(βS-Me,7-OMe)][X1][Nle][4Pal][Pip(4-aza)]W[dPro(3S-OH)]N))
Kd: 0.24 nM

CCCC[C@@H]1NC(=O)[C@H](CC)SC[C@@H](C(N)=O)NC(=O)[C@H]([C@@H](C)c2c[nH]c3c(OC)cccc23)NC(=O)CN(C)C(=O)[C@H](Cc2ccc(O)cc2)NC(=O)[C@H](Cc2ccc(C(N)=O)cc2)NC(=O)[C@](C)(CO)NC(=O)[C@H](Cc2c[nH]c3c(Cl)cccc23)NC(=O)[C@H](Cc2ccncc2)NC(=O)[C@H](CC(N)=O)NC(=O)[C@H](CCC(=O)O)N(C)C(=O)[C@H](Cc2c[nH]c3ccccc23)NC(=O)[C@@H]2CSCCN2C(=O)[C@H](Cc2ccncc2)NC1=O [SEQ ID NO. 246] ([Nle][4Pal][X68]W[NMeE]N[4Pal][Trp(7-Cl)][αMeS][Phe(4-CONH2)]Y[Sar][Trp(βS-Me,7-OMe)]C-NH2; linker N-14 via X7)
IC50: 1.15 nM
